A melting point compilation (Tetko et al.; mined from patent text by program, amines drawn as free bases though some values may be those of a salt)

| Compound | melting point [°C] |
| --- | --- |
| CCOC(=O)c1cn2c(cnc3ccccc32)n1 | 184 to 187 |
| O=c1[nH]c(-c2ccc(O)cc2)cc2ccccc12 | 239 to 241 |
| CCOc1ccc([C@H]2O[C@H](CC(=O)O)C(=O)N(CC(C)(C)C)c3ccc(Cl)cc32)c(OC)c1 (relative stereo) | 230 to 232 |
| C=CC(=O)NCc1ccc(Cl)cc1 | 103 to 104 |
| CCc1c(C(=O)NNC(=O)C(O)c2cc(F)cc(F)c2)ccc(OC)c1C (centres undefined) | 197 |
| CCOc1cc2ncc(C#N)c(Nc3ccc(F)cc3C)c2cc1OCC | 105 to 108 |
| O=C1Cc2ccccc2C=Cc2cc(Br)ccc21 | 121 to 123 |
| O=c1c(Cc2cccnc2)cn2c3ccccc3c3cc(OCCCO)cc1c32 | 72.5 to 78.6 |
| CCCN(CCC)C(=O)CN(C(=O)CN1C(=O)c2ccccc2C1=O)c1ccccc1 | 130 |
| Cc1c(C(=O)NCc2ccc3c(Br)c(OC(Cc4ccccc4)C(=O)O)ccc3c2)oc2ccccc12 (centres undefined) | 110 to 113 |
| CC(C)c1nc(C(c2ccccc2)c2ccccc2)cc(-c2ccc(F)cc2)c1CO | 138 to 140 |
| CC(C)CCOC(=O)C(O)C(CC(C)C)NC(=O)C(Cc1c[nH]cn1)NC(=O)C(CC(=O)NCCc1ccccc1)Cc1cccc2ccccc12 (mixture of isomers) | 82 to 87 |
| CCCCOc1ccc(-c2nnc(Nc3ccc(Cl)c(Cl)c3)s2)cc1 | 233 to 235 |
| COc1cc2c(c(-c3cccc(Cl)c3Cl)c1)OC(CN)C2 (centres undefined) | 159 to 161 |
| Nc1cc([N+](=O)[O-])c(N)cc1SCC(O)CO (centres undefined) | 164 |
| c1cc2[nH]ncc2cc1OC1CCCCC1 | 144 to 146 |
| CCN(CCNS(C)(=O)=O)c1ccc(N)c(C)c1 | 128 to 130 |
| O=C(c1ccccc1)c1c(F)ccc([N+](=O)[O-])c1F | 75.8 to 77.2 |
| CS(=O)(=O)N1CCC(Nc2nc(Nc3cccc(C(F)(F)F)c3)nc(OCc3ccccn3)n2)CC1 | 160 to 162 |
| CN1CCN(Cc2c(-c3cc(C(C)(C)C)c(O)c(C(C)(C)C)c3)nc3n2CCS3)CC1 | 211 to 212 |
| CON=C(c1ccccc1)c1ccc2c(c1)C(C)(C)CCN2CCOc1ccc(CC(OCC(F)(F)F)C(=O)O)cc1 (centres undefined) | 62 to 64 |
| COC1=C(c2csc(NC(=O)c3cc4ccccc4[nH]3)n2)C=CC(Cl)(OC)C1 (centres undefined) | 293 |
| O=C1CCC(N2Cc3c(CNC(=O)c4ccccc4)cccc3C2=O)C(=O)N1 (centres undefined) | 228 to 230 |

| Compound | melting point [°C] |
| --- | --- |
| CN(C(=O)c1sc2cc(C(=O)O)ccc2c1S)c1ccc2sc3ccccc3c(=O)c2c1 | 210 to 212 |
| CCOc1ccc2cc(-c3nc(C(C)(C)C)[nH]c3-c3ccncc3)ccc2c1 | 258 to 259 |
| Nc1ccn([C@@H]2O[C@H](CO)[C@@H](O)/C2=C\F)c(=O)n1 | 166 |
| COC(=O)c1ccc(OC)c2c1OCO2 | 122 to 124 |
| Nc1ccccc1Nc1ccc(Oc2ccc(C(c3ccc(Oc4ccc(Nc5ccccc5N)cc4)cc3)(C(F)(F)F)C(F)(F)F)cc2)cc1 | 62.4 to 64.1 |
| CC(C)(O)c1nnc2ccc(-c3c(-c4ccc(F)cc4F)nc4n3CCC4)nn12 | 222 to 223 |
| CCC(C)(C)C(=O)Oc1cc2c(s1)CCN([C@H](C(=O)OC)c1ccccc1Cl)C2 | 98 to 100 |
| COc1ccc(Sc2nn(-c3ccc(OC)cc3)c(=O)c(C#N)c2C)cc1 | 188 to 190 |
| Cc1cccc(S(=O)(=O)Nc2onc(C)c2Br)c1 | 138 to 140 |
| COC(=O)C(C)c1ccc2c(=O)c3ccccc3ccc2c1 (centres undefined) | 37 to 39 |
| CN(C)CCCOc1ccc2ccc(N)nc2n1 | 88 |
| NC(=O)C1CCn2c(cc3ccccc32)C1 (centres undefined) | 165 to 168 |
| COc1ccc(C(CCCCC(=O)O)C2=CC(=O)c3ccccc3C2=O)cc1 (centres undefined) | 141 to 143 |
| CNC(=O)c1cccc(Cl)c1Nc1nc(Nc2ccc3c(c2)CCCC(=O)N3CCOC)ncc1Cl | 136 to 157 |
| COc1cc(NS(=O)(=O)c2ccc(Cl)cc2)c(C(=O)Cl)cc1OC | 175 to 177 |
| CC(=O)c1ccc(/C=C(\C)c2ccc3c(c2)C(C)(C)CC3(C)C)cc1 | 130 to 131 |
| CC1(C)C(=O)N(c2ccc(C#N)c(C(F)(F)F)c2)C(=O)N1CCCC(=O)O | 179 to 180 |
| O=c1nc(-c2ccc(NCc3ccccc3)nc2)sc2ccccc12 | 194 to 196 |
| CNn1cc(-c2ccccc2)c2ccccc21 | 60 to 62 |
| CCN1CCC(c2cc3ccc(C)cc3c(=O)[nH]2)CC1 | 239 to 241 |
| CC1(C)OC(=O)Nc2ccc(-c3cc(F)cc(Br)c3)cc21 | 182 to 183 |
| COCc1cc(C(O)CNCCCCCCOCCc2ccc(OC)cc2)ccc1O (centres undefined) | 97.5 to 98.5 |
| CC(C)(C)OC(=O)CSC(NCc1ccccc1)=C1C(=O)CCCC1=O | 142 to 143 |

| Compound | melting point [°C] |
| --- | --- |
| CC(=O)Nc1nc(-c2ccc(F)c3ccccc23)cc(C(C)C)n1 | 115 to 117 |
| O=S1(=O)c2cccc3cccc(c23)N1CCCN1CCN(c2ccccc2F)CC1 | 112 |
| CC(C)(C)OC(=O)NCc1cccc(OCCC2Oc3ccccc3N(Cc3ccccc3Cl)C2=O)c1 (centres undefined) | 115 to 116 |
| CN(C)C(N)=Nc1cc(C#N)ccc1N1CCOCC1 | 125 to 127 |
| OCc1cc(C2CN(CCCCCCOCCCCc3ccccc3)CO2)ccc1O (racemic) | 72 to 75 |
| Cc1cccc(-c2n[nH]cc2-c2ccc(F)c(-c3ccc(S(N)(=O)=O)s3)c2)n1 | 125 |
| O=C(NCCN1C(=O)C2(COc3cc4c(cc32)OCO4)c2ccccc21)c1ccccc1OC(F)(F)F (centres undefined) | 183 to 184 |
| CCCc1n[nH]c2ccc(C(=O)O)cc12 | 296 to 299 |
| CCOC(=O)C1CCc2c(n(C)c3ccc(Cl)cc23)C1 (centres undefined) | 126 to 127 |
| O=S(=O)(c1cccs1)N(CC1CC1)c1cccc2cc(-c3ncc(CCl)s3)[nH]c12 | 135 |
| CN(CC(O)C(Cc1ccccc1)NC(=O)OC(C)(C)C)CC(O)C(Cc1ccccc1)NC(=O)OC(C)(C)C (centres undefined) | 62 to 70 |
| Cc1cc(C)c(/C=C2\C(=O)N(C(=O)CNC(=O)OCc3ccccc3)c3ccccc32)[nH]1 | 193 to 196 |
| CC1CC(n2c(NC3CC3)nc3cc(Cl)c(Cl)cc32)C(O)C1O (centres undefined) | 231 to 233 |
| Fc1cccc(OC2CN(C3CCC(c4c[nH]c5ccccc45)CC3)C2)c1 (centres undefined) | 114 to 117 |
| CN(C)CCNc1cc(Sc2ccc(Cl)cc2)nc(-c2ccc(Cl)c(Cl)c2)n1 | 99 to 103 |
| COc1cc2c(Nc3cc(OC)c(OC)c(OC)c3)c(C#N)cnc2cc1F | 215 to 217 |
| N#CSCC(Cl)=C(Cl)CBr | 64.5 to 66.5 |
| ON=Cc1ccc(-c2ccc(O)cc2)c2ccoc12 | 219 to 220 |
| COc1ccc(C(=O)CN(C)C(=O)/C=C/c2cccnc2)cc1OC | 193 to 194 |
| Cc1cc(-c2noc(C)c2-c2ccc(S(C)(=O)=O)c(F)c2)ccc1-c1cscn1 | 99.5 |
| Cc1cc(C#N)sc1-c1ccc2c(c1)C(C)(C)OC(C)N2 (centres undefined) | 145 to 146 |
| O=C(Nc1cccc(C(F)(F)F)c1)c1ccccc1[N+](=O)[O-] | 134 to 135 |
| CCOC(=O)c1ccc(C(=O)O)c2c([N+](=O)[O-])cccc12 | 178 to 180 |
